Where “and” joins values, the source holds several entries; their conditions need not be identical. Equal entries are not always repeated.
Biological target: T1, PfCRT^Dd2_F145I (Plasmodium falciparum, UniProt Q8IBZ9, A220S/F145I/I356T/K76T/M74I/N326S/N75E/Q271E/R371I)
T1 construct: expressed in transfected cells; host or cells: Xenopus laevis oocytes injected with in vitro transcribed RNA (pSP64T)
T1 sequence (Q8IBZ9 1-424 M74I/N75E/K76T/F145I/A220S/Q271E/N326S/I356T/R371I): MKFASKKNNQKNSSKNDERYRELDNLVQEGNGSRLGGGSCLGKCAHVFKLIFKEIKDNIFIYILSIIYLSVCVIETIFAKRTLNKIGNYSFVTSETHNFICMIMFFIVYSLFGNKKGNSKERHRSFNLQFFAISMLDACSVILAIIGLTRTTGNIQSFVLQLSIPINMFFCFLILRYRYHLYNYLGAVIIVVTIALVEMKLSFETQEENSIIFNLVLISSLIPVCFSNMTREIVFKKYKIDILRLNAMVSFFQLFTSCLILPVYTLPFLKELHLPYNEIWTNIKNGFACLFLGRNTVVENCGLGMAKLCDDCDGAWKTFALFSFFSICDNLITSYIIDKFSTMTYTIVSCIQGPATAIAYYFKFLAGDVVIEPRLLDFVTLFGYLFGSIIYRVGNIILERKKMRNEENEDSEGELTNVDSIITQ
Experiment: Competition kinetics of drug transport (radiolabeled substrate plus cold inhibitor), PfCRT^Dd2_F145I-expressing oocytes
Type: cell-based
Description: To further characterize the kinetic relationship between CQ and PPQ, we performed a series of competition reactions. To this end, water-injected oocytes and PfCRT-expressing oocytes were incubated in medium containing one of seven concentrations of radio-labeled CQ and one of six concentrations of cold PPQ for 60 min before the amount of radio-labeled CQ uptake was determined. The rate of PfCRT-mediated CQ uptake was calculated for each condition by subtracting the corresponding value obtained for water-injected oocytes from those of PfCRT-expressing oocytes. The results were analyzed as a function of the CQ concentration (Fig 4A) and 16 different models of substrate competition were globally fit to the data by the least-squares method, using Python. The models were ranked, according to their Akaike information criterion difference (ΔAICC) and their Akaike weight (Fig 4B), with the most plausible model being the one with the lowest AICC (ΔAICC = 0) and the highest Akaike weight.
A complementary set of experiments was undertaken to investigate the kinetic mechanism by which PfCRT^Dd2_F145I accepts CQ and PPQ (Fig 6). […] These included a global fit of the substrate competition data to the 16 kinetic models (Fig 6), analysis of the secondary plots (Vmax,app and Vmax,app/KM,app as a function of the inhibitor concentration) (Fig 7A), a fractional velocity plot analysis (Fig 7B) and a comparison of the experimental data with the modelled data using the noncompetitive inhibition equation (Fig 7C to 7F). […] The fractional velocity plot illustrated the partial character of the noncompetitive inhibition mechanism by yielding a partiality factor β^CQ = 0.31 ± 0.04, by which PPQ reduces the transport velocity of CQ (Fig 7B). […] A 3D model of the kinetics between PfCRT^Dd2_F145I, CQ and PPQ, and analyses of the residuals as a function of substrate and inhibitor concentrations confirmed that the model was also an appropriate explanation for the mutant transporter (Fig 7C to 7F).
Drug transport assays were performed as previously described. Briefly, measurements of radiolabeled drug uptake were made over 1 h, unless otherwise specified. […] Where specified, one or more unlabeled drugs were also present at the indicated concentrations. The direction of drug transport in the assays is from the extracellular medium (pH 6) into the oocyte cytosol (pH 7.2), which corresponds to the efflux of CQ or PPQ from the acidic digestive vacuole (pH 5.2) into the parasite cytosol (pH 7.2). The uptake assays were terminated by removing the oocytes from the reaction medium and washing them three times with 2 mL of ice-cold ND96 buffer. Each oocyte was transferred to a separate scintillation vial and lysed by the addition of 200 μL of a 5% SDS solution. The radioactivity in the sample was measured using a liquid scintillation analyser Tri-Carb 4910 TR (PerkinElmer). Water-injected oocytes were analyzed in parallel as a negative control. The buffer from each condition was measured in duplicate in parallel to each experiment to transform counts per minute into pmol of drug. Drug uptake attributable to PfCRT was determined by subtracting the background uptake from water-injected oocytes from that of PfCRT-expressing oocytes. In all cases, at least three independent experiments were performed on oocytes from different frogs, and for each condition in an experiment, measurements were made from 10 oocytes per treatment.
The following equations were adopted from Segel (1993), and the reader is referred to that text for the assumptions made in the author’s approach in the derivation of each equation [31]. The concentration of substrate is denoted as [S1] and the concentration of the inhibiting substrate is denoted as [S2]. KS1 and KS2 are the dissociation constants for the respective substrate-protein complexes.
Analyses of the kinetic data were performed using SigmaPlot version 13.0 and Python. […]

## Clc1ccc2c(N3CCN(CCCN4CCN(c5ccnc6cc(Cl)ccc56)CC4)CC3)ccnc2c1 [PPQ, piperaquine]
10 µM PPQ, 0 µM CQ
  PfCRTDd2_F145I-mediated PPQ transport: 11.21 pmol oocyte-1 h-1 and 11.88 pmol oocyte-1 h-1 and 9.04 pmol oocyte-1 h-1
10 µM PPQ, 50 µM CQ
  PfCRTDd2_F145I-mediated PPQ transport: 9.4 pmol oocyte-1 h-1 and 8.02 pmol oocyte-1 h-1 and 11.57 pmol oocyte-1 h-1
10 µM PPQ, 125 µM CQ
  PfCRTDd2_F145I-mediated PPQ transport: 7.93 pmol oocyte-1 h-1 and 10.99 pmol oocyte-1 h-1 and 8.58 pmol oocyte-1 h-1
10 µM PPQ, 200 µM CQ
  PfCRTDd2_F145I-mediated PPQ transport: 8.51 pmol oocyte-1 h-1 and 7.12 pmol oocyte-1 h-1 and 10.43 pmol oocyte-1 h-1
10 µM PPQ, 400 µM CQ
  PfCRTDd2_F145I-mediated PPQ transport: 7.41 pmol oocyte-1 h-1 and 6.45 pmol oocyte-1 h-1
50 µM PPQ, 25 µM CQ
  PfCRTDd2_F145I-mediated PPQ transport: 33.88 pmol oocyte-1 h-1 and 40.73 pmol oocyte-1 h-1 and 51.89 pmol oocyte-1 h-1
50 µM PPQ, 50 µM CQ
  PfCRTDd2_F145I-mediated PPQ transport: 40.89 pmol oocyte-1 h-1 and 44.12 pmol oocyte-1 h-1 and 39.8 pmol oocyte-1 h-1
50 µM PPQ, 125 µM CQ
  PfCRTDd2_F145I-mediated PPQ transport: 36.42 pmol oocyte-1 h-1 and 31.75 pmol oocyte-1 h-1 and 38.13 pmol oocyte-1 h-1
50 µM PPQ, 400 µM CQ
  PfCRTDd2_F145I-mediated PPQ transport: 17.03 pmol oocyte-1 h-1 and 21.16 pmol oocyte-1 h-1
100 µM PPQ, 0 µM CQ
  PfCRTDd2_F145I-mediated PPQ transport: 60.49 pmol oocyte-1 h-1 and 74.22 pmol oocyte-1 h-1 and 56.91 pmol oocyte-1 h-1
100 µM PPQ, 25 µM CQ
  PfCRTDd2_F145I-mediated PPQ transport: 59.02 pmol oocyte-1 h-1 and 57.16 pmol oocyte-1 h-1 and 56.63 pmol oocyte-1 h-1
100 µM PPQ, 50 µM CQ
  PfCRTDd2_F145I-mediated PPQ transport: 63 pmol oocyte-1 h-1 and 53.26 pmol oocyte-1 h-1 and 51.28 pmol oocyte-1 h-1
100 µM PPQ, 125 µM CQ
  PfCRTDd2_F145I-mediated PPQ transport: 52.64 pmol oocyte-1 h-1 and 47.96 pmol oocyte-1 h-1 and 53 pmol oocyte-1 h-1
100 µM PPQ, 200 µM CQ
  PfCRTDd2_F145I-mediated PPQ transport: 45.31 pmol oocyte-1 h-1 and 44.84 pmol oocyte-1 h-1 and 60.71 pmol oocyte-1 h-1
100 µM PPQ, 400 µM CQ
  PfCRTDd2_F145I-mediated PPQ transport: 44.06 pmol oocyte-1 h-1 and 56.54 pmol oocyte-1 h-1
200 µM PPQ, 25 µM CQ
  PfCRTDd2_F145I-mediated PPQ transport: 102.24 pmol oocyte-1 h-1 and 78.79 pmol oocyte-1 h-1 and 91.29 pmol oocyte-1 h-1
200 µM PPQ, 50 µM CQ
  PfCRTDd2_F145I-mediated PPQ transport: 94.74 pmol oocyte-1 h-1 and 73.08 pmol oocyte-1 h-1 and 99.27 pmol oocyte-1 h-1
200 µM PPQ, 125 µM CQ
  PfCRTDd2_F145I-mediated PPQ transport: 78.46 pmol oocyte-1 h-1 and 108.53 pmol oocyte-1 h-1 and 73.37 pmol oocyte-1 h-1
200 µM PPQ, 400 µM CQ
  PfCRTDd2_F145I-mediated PPQ transport: 85.32 pmol oocyte-1 h-1 and 58.78 pmol oocyte-1 h-1
300 µM PPQ, 0 µM CQ
  PfCRTDd2_F145I-mediated PPQ transport: 115.45 pmol oocyte-1 h-1 and 117.23 pmol oocyte-1 h-1
300 µM PPQ, 25 µM CQ
  PfCRTDd2_F145I-mediated PPQ transport: 115.11 pmol oocyte-1 h-1 and 88.35 pmol oocyte-1 h-1 and 102.98 pmol oocyte-1 h-1
300 µM PPQ, 50 µM CQ
  PfCRTDd2_F145I-mediated PPQ transport: 85.96 pmol oocyte-1 h-1 and 103.73 pmol oocyte-1 h-1 and 93.02 pmol oocyte-1 h-1
300 µM PPQ, 125 µM CQ
  PfCRTDd2_F145I-mediated PPQ transport: 84.14 pmol oocyte-1 h-1 and 103.07 pmol oocyte-1 h-1 and 81.24 pmol oocyte-1 h-1
300 µM PPQ, 200 µM CQ
  PfCRTDd2_F145I-mediated PPQ transport: 75.68 pmol oocyte-1 h-1 and 80.62 pmol oocyte-1 h-1 and 99.18 pmol oocyte-1 h-1
300 µM PPQ, 400 µM CQ
  PfCRTDd2_F145I-mediated PPQ transport: 77.19 pmol oocyte-1 h-1 and 102 pmol oocyte-1 h-1
400 µM PPQ, 0 µM CQ
  PfCRTDd2_F145I-mediated PPQ transport: 130.32 pmol oocyte-1 h-1 and 101.99 pmol oocyte-1 h-1
400 µM PPQ, 25 µM CQ
  PfCRTDd2_F145I-mediated PPQ transport: 115.19 pmol oocyte-1 h-1 and 112.21 pmol oocyte-1 h-1 and 107.93 pmol oocyte-1 h-1
400 µM PPQ, 50 µM CQ
  PfCRTDd2_F145I-mediated PPQ transport: 86.8 pmol oocyte-1 h-1 and 110.06 pmol oocyte-1 h-1 and 116.13 pmol oocyte-1 h-1
400 µM PPQ, 125 µM CQ
  PfCRTDd2_F145I-mediated PPQ transport: 93.73 pmol oocyte-1 h-1 and 100.31 pmol oocyte-1 h-1 and 96.89 pmol oocyte-1 h-1
400 µM PPQ, 200 µM CQ
  PfCRTDd2_F145I-mediated PPQ transport: 75.94 pmol oocyte-1 h-1 and 96.5 pmol oocyte-1 h-1 and 106.38 pmol oocyte-1 h-1
400 µM PPQ, 400 µM CQ
  PfCRTDd2_F145I-mediated PPQ transport: 105.94 pmol oocyte-1 h-1 and 73.74 pmol oocyte-1 h-1
500 µM PPQ, 0 µM CQ
  PfCRTDd2_F145I-mediated PPQ transport: 124.15 pmol oocyte-1 h-1 and 149.83 pmol oocyte-1 h-1
500 µM PPQ, 25 µM CQ
  PfCRTDd2_F145I-mediated PPQ transport: 134.09 pmol oocyte-1 h-1 and 105.12 pmol oocyte-1 h-1 and 107.54 pmol oocyte-1 h-1
500 µM PPQ, 50 µM CQ
  PfCRTDd2_F145I-mediated PPQ transport: 102.67 pmol oocyte-1 h-1 and 147.39 pmol oocyte-1 h-1 and 78.85 pmol oocyte-1 h-1
500 µM PPQ, 125 µM CQ
  PfCRTDd2_F145I-mediated PPQ transport: 105.59 pmol oocyte-1 h-1 and 76.21 pmol oocyte-1 h-1 and 122.33 pmol oocyte-1 h-1
500 µM PPQ, 200 µM CQ
  PfCRTDd2_F145I-mediated PPQ transport: 62.06 pmol oocyte-1 h-1 and 101.24 pmol oocyte-1 h-1
